This assay relates to Langendorff rat heart. Description: Langendorff rat heart (isolated perfused heart, coronary perfusion pressure). The following applies: constant-volume (10 ml/min) coronary perfusion, concentration from which perfusion pressure decreases (= relaxation of the coronary arteries), read-out: Decrease in the perfusion pressure from:
As to the method:
The heart is rapidly removed after opening the chest cavity of anesthetized rats and is introduced into a conventional Langendorff apparatus. The coronary arteries are subjected to constant-volume (10 ml/min) perfusion, and the perfusion pressure arising thereby is recorded via an appropriate pressure transducer. A decrease in the perfusion pressure in this arrangement corresponds to a relaxation of the coronary arteries. At the same time, the pressure developed by the heart during each contraction is measured via a balloon introduced into the left ventricle, and a further pressure transducer. The rate at which the isolated heart beats is found by calculation from the number of contractions per unit time.

`COCCN(Cc1ccc(C2CCCCC2C(=O)NC(CO)c2ccccc2)cc1)C(=O)Nc1ccccc1` (stereo not drawn) [Example 80]: the minimal effective concentration turned out to be 1 µM.

Turning to `CN(Cc1ccc([C@H]2CCCC[C@@H]2C(=O)N[C@@H](CO)c2ccccc2)cc1)c1ccccc1` [Example 21], the minimal effective concentration is 0.001 µM. As for `C[C@H](NC(=O)[C@H]1CCCC[C@@H]1c1ccc(CN(C(=O)N2CCCC2)c2ccccc2)cc1)c1ccccc1` [Example 7], the figure is 0.1 µM; as for `O=C(N[C@@H](CO)c1ccccc1)[C@H]1CCCC[C@@H]1c1ccc(CN(C(=O)N2CCCCC2)c2ccccc2)cc1` [Example 1, N-[4-((1S,2S)-2-{[((1R)-2-Hydroxy-1-phenylethyl)amino]carbonyl}cyclohexyl)-benzyl]-N-phenyl-1-piperidinecarboxamide], 1 µM; as for `C[C@H](NC(=O)[C@H]1CCCC[C@@H]1c1ccc(COc2ccccc2)cc1)c1ccccc1` [Example 210, (1S,2S)-2-(4-[Phenoxymethyl]phenyl)-N-[(1S)-1-phenylethyl]cyclohexane-carboxamide], 0.001 µM. For the molecule `O=C(NC(CO)c1ccccc1)C1CCCCC1c1ccc(CN(C(=O)Oc2ccccc2)C2CC2)cc1` (stereo not drawn) [Example 40], the minimal effective concentration worked out at 0.01 µM.

On to `COCC(NC(=O)[C@H]1CCCC[C@@H]1c1ccc(CN(C(=O)Oc2ccccc2)C2CC2)cc1)c1ccccc1` (stereo partly drawn) [Example 168], for which the minimal effective concentration came to 0.01 µM. Consider `C[C@H](NC(=O)[C@H]1CCCC[C@@H]1c1ccc(CN(C)C(C)(C)c2ccccc2)cc1)c1ccccc1` [Example 123, (1S,2S)-2-(4-{[Dimethylbenzyl(methyl)amino]methyl}phenyl)-N-[(1S)-1-phenylethyl]cyclohexanecarboxamide], for which the minimal effective concentration worked out at 0.01 µM. For `C[C@H](NC(=O)[C@H]1CCCCC1c1ccc(C(=O)N(C)C(C)(C)c2ccccc2)cc1)c1ccccc1` (stereo in doubt) [Example 177, N-Methyl-N-(1-methyl-1-phenylethyl)-4-[(1R,2S)-2-({[(1S)-1-phenylethyl]-amino}carbonyl)cyclohexyl]benzamide], the minimal effective concentration was found to be 0.01 µM.

Source of the values: patent publication US20040235830A1, “Substituted cyclohexane derivatives and the use thereof in medicaments for treating cardiovascular diseases” (priority 2000, published 2004).
